From patent US6706715B2, “Urea derivatives with antiproteolytic activity” (Aventis Pharma Deutschland GmbH, priority 2001, dated 2004)

Molecular target: T1, factor VIIa/tissue factor (Homo sapiens, UniProt P08709)
T1 construct: human factor VIIa and TF
Assay: Factor VIIa (FVIIa) chromogenic assay
Type: biochemical
Conditions: human factor VIIa 5 nM and TF 10 nM; chromogenic substrate S-2288 500 μM; 25° C.; 15 minute preincubation; pH 8.15
Method: The ability of the compounds of the formula I to inhibit factor VIIa or other enzymes like factor Xa, thrombin, plasmin, or trypsin can be assessed by determining the concentration of the compound of the formula I that inhibits enzyme activity by 50%, i.e. the IC50 value, which is related to the inhibition constant Ki. Purified enzymes are used in chromogenic assays. The concentration of inhibitor that causes a 50% decrease in the rate of substrate hydrolysis is determined by linear regression after plotting the relative rates of hydrolysis (compared to the uninhibited control) versus the log of the concentration of the compound of formula I. For calculating the inhibition constant Ki, the IC50 value is corrected for competition with substrate using the formula
Ki=IC50/{1+(substrate concentration/Km)}
wherein Km is the Michaelis-Menten constant (Chen and Prusoff, Biochem. Pharmacol. 22 (1973), 3099-3108; I. H. Segal, Enzyme Kinetics, 1975, John Wiley & Sons, New York, 100-125; which are incorporated herein by reference).
a) Factor VIIa (FVIIa) Assay
The inhibitory activity (expressed as inhibition constant Ki(FVIIa)) of the compounds of formula I towards factor VIIa/tissue factor activity was determined using a chromogenic assay essentially as described previously (J. A. Ostrem et al., Biochemistry 37 (1998) 1053-1059 which is incorporated herein by reference). Kinetic assays were conducted at 25° C. in half-area microtiter plates (Costar Corp., Cambridge, Mass.) using a kinetic plate reader (Molecular Devices Spectramax 250). A typical assay consisted of 25 μl human factor VIIa and TF (5 nM and 10 nM, respective final concentration) combined with 40 μl of inhibitor dilutions in 10% DMSO/TBS-PEG buffer (50 mM Tris, 15 mM NaCl, 5 mM CaCl2, 0.05% PEG 8000, pH 8.15). Following a 15 minute preincubation period, the assay was initiated by the addition of 35 μl of the chromogenic substrate S-2288 (D-Ile-Pro-Arg-p-nitroanilide, Pharmacia Hepar Inc., 500 μM final concentration).

T1 sequence (P08709 213-466 limits assumed): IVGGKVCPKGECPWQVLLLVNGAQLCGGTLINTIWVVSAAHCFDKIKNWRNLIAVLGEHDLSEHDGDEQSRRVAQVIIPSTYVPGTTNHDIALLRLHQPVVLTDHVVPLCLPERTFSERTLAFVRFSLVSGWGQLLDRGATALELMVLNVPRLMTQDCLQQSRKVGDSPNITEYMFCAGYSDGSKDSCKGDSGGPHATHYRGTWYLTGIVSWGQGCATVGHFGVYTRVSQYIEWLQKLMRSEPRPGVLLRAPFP
T1 sequence (P08709 61-212 limits assumed): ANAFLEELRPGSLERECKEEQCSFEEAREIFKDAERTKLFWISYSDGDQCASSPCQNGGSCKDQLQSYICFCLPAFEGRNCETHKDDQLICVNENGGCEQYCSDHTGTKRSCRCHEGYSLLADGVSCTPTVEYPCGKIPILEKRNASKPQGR
T1 sequence (P13726 33-295 partner): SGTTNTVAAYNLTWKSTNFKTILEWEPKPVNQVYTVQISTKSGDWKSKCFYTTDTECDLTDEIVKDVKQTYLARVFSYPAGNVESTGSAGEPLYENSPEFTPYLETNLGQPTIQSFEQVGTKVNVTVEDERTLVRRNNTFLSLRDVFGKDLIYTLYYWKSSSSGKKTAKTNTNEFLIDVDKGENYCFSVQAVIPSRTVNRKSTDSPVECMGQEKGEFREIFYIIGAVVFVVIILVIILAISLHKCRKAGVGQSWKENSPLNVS

SMILES	Ki [nM]
CC(Nc1ccccc1NC(=O)Nc1ccc(C(=N)N)cc1)c1ccc(C(=O)N2CCOCC2)cc1 (stereo not drawn) [Example 5, 4-[3-(2-{1-[4-(morpholine-4-carbonyl)-phenyl]-ethylamino}-phenyl)-ureido]-benzamidine acetate]	188
CC(Nc1ccccc1NC(=O)Nc1ccc(C(=N)N)cc1)c1ccc(C(=O)Nc2csc(-c3ccccc3)c2)cc1 (stereo not drawn) [Example 30]	282
C[C@@H](Nc1ccccc1NC(=O)Nc1ccc(C(=N)N)cc1)c1ccccc1 [Example 15]	103
CC(Nc1ccccc1NC(=O)Nc1ccc(C(=N)N)cc1)c1ccc(C(=O)Nc2ccc(C(F)(F)F)cc2)cc1 (stereo not drawn) [Example 39]	935
CC(Nc1ccccc1CNC(=O)Nc1ccc(C(=N)N)cc1)c1cccc(C(F)(F)F)c1 (stereo not drawn) [Example 18]	44400
CC(Nc1ccccc1NC(=O)Nc1ccc(C(=N)N)cc1)c1ccc(C(=O)NC2CCCCC2)cc1 (stereo not drawn) [Example 37]	56
CC(Nc1ccccc1NC(=O)Nc1ccc(C(=N)N)cc1)c1ccccc1 (stereo not drawn) [Example 2, 4-{3-[2-(1-Phenyl-ethylamino)-phenyl]-ureido}-benzamidin]	700
CC(Nc1ccccc1NC(=O)Nc1ccc(C(=N)N)cc1)c1ccc(C(=O)NCc2ccc(S(C)(=O)=O)cc2)cc1 (stereo not drawn) [Example 24]	98
CC(Nc1ccccc1NC(=O)Nc1ccc(C(=N)N)cc1)c1ccc(C(=O)Nc2cccc(S(C)(=O)=O)c2)cc1 (stereo not drawn) [Example 19]	51
